The record followed here is ChEMBL document CHEMBL5518235, “Identification of Novel Series of Potent and Selective Relaxin Family Peptide Receptor 1 (RXFP1) Agonists” (J Med Chem, 2024).

Activity calls are given as the source filed them. No cut-off for these calls is given here. Some results are limits rather than exact numbers.

The nature of data set [1]: Clearance in Han Wistar rat at 0.73 micromol/kg, iv by LC-MS/MS analysis. The following applies: in vivo, dose 0.73 µmol/kg. It is filed as ADME, organism-based.
In data set [2] the target is T1, Leucine-rich repeat-containing G-protein coupled receptor 4 (Homo sapiens, UniProt Q9BXB1).
T1 sequence (Q9BXB1 whole entry): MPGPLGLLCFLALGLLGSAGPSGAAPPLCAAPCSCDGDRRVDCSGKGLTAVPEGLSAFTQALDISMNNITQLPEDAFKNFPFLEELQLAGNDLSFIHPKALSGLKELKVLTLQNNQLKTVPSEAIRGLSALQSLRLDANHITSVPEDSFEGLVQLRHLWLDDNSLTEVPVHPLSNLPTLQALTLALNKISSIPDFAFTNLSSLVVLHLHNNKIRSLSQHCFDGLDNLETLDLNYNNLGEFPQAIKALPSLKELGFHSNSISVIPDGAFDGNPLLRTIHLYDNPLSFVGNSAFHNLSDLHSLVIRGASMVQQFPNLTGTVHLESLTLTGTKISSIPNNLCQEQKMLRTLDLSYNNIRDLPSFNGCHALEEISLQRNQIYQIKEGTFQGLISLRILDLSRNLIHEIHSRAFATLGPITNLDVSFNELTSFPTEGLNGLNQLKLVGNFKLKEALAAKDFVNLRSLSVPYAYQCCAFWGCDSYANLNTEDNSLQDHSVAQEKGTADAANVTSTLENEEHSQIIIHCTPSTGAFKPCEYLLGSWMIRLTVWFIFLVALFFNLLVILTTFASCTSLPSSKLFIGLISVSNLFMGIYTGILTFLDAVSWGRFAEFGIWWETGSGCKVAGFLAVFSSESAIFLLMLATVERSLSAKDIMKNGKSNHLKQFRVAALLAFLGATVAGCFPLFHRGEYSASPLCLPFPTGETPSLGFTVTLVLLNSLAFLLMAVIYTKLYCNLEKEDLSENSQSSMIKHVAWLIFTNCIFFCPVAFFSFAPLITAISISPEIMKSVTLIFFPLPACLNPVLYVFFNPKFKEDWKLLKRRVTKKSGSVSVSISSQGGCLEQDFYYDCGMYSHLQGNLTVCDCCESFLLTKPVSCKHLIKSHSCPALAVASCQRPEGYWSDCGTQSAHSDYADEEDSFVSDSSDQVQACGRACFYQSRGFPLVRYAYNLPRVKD
Put plainly: Agonist activity at LGR4 (unknown origin) by arrestin technology based assay.

Data set [3] deals with Bile salt export pump (Homo sapiens, UniProt O95342). Description: Inhibition of BSEP (unknown origin) by membrane vesicle assay. It is filed as toxicity.
The target of data set [4] is T2, Relaxin receptor 1 (Rattus norvegicus) (UniProt Q6R6I6).
T2 sequence (whole entry): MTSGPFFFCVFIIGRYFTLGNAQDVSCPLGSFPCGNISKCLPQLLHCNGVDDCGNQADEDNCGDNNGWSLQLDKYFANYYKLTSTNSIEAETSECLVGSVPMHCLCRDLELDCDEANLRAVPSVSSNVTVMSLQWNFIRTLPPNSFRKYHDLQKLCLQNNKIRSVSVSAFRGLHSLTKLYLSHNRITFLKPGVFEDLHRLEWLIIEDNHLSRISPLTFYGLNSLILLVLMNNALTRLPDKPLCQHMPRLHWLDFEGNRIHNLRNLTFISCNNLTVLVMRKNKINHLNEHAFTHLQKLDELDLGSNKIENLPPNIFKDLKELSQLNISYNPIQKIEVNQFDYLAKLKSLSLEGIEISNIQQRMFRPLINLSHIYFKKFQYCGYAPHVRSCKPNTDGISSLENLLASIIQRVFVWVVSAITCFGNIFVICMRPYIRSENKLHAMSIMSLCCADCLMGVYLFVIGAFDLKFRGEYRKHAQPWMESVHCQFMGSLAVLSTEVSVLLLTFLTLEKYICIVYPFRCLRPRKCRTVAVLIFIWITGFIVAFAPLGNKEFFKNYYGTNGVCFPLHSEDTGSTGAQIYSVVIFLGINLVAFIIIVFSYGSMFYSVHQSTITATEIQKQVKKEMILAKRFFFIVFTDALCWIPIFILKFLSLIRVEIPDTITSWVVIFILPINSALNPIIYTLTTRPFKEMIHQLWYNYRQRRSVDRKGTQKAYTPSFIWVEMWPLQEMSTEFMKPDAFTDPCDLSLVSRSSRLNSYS
Put plainly: In vivo agonist activity at RXFP1 in Sprague-Dawley rat assessed as hemodynamic effect by measuring increase in blood pressure at 1.5 mg/kg, iv administered via bolus followed by 9.0 mg/kg, iv administered via infusion for 3 hrs and measured 1 hrs post washout. The format is functional, organism-based.

Data set [5] is described as follows: Genotoxicity in human A549 upto 1000 uM by micronucleus test. The format is toxicity, cell-based. The following applies: a549, 1000 µM.
The nature of data set [6]: Half-life in Han Wistar rat at 0.73 micromol/kg, iv by LC-MS/MS analysis. It is filed as ADME, organism-based. The conditions noted are these: in vivo, dose 0.73 µmol/kg.
The target of data set [7] is Voltage-gated inwardly rectifying potassium channel KCNH2 (Homo sapiens, UniProt Q12809). Put plainly: Inhibition of human ERG by automated electrophysiology recording. It is filed as toxicity.
Voltage-gated inwardly rectifying potassium channel KCNH2, sequence (Q12809 whole entry): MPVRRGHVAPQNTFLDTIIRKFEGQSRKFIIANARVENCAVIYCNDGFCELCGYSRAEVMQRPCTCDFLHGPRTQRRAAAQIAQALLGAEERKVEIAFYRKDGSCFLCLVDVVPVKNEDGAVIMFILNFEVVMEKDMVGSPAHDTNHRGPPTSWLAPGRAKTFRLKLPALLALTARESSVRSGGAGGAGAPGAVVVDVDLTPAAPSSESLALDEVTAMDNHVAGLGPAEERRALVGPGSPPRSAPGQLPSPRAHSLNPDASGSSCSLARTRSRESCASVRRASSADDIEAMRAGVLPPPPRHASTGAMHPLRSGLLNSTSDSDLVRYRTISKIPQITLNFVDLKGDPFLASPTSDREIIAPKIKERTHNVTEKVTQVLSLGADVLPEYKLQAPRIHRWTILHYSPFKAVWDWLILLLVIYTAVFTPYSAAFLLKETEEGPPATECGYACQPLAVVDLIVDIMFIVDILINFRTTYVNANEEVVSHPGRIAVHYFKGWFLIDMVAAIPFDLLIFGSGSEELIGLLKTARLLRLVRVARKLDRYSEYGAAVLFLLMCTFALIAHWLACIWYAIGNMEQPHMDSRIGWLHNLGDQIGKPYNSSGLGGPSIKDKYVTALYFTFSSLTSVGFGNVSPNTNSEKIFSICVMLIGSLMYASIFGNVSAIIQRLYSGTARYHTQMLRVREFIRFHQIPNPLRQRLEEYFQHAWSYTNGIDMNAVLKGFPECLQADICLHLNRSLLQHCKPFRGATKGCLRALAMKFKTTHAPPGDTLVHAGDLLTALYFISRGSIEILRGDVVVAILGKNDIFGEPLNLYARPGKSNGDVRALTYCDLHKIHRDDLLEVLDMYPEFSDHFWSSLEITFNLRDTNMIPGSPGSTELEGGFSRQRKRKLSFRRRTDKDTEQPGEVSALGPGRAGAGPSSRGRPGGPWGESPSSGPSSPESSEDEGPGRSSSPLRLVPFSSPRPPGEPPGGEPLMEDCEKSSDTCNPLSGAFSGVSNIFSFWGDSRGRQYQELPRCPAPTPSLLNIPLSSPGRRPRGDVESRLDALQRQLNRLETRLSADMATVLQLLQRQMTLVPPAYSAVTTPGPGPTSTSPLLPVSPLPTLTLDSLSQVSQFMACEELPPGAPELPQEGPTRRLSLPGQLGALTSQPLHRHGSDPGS

Bile salt export pump, sequence (O95342 whole entry): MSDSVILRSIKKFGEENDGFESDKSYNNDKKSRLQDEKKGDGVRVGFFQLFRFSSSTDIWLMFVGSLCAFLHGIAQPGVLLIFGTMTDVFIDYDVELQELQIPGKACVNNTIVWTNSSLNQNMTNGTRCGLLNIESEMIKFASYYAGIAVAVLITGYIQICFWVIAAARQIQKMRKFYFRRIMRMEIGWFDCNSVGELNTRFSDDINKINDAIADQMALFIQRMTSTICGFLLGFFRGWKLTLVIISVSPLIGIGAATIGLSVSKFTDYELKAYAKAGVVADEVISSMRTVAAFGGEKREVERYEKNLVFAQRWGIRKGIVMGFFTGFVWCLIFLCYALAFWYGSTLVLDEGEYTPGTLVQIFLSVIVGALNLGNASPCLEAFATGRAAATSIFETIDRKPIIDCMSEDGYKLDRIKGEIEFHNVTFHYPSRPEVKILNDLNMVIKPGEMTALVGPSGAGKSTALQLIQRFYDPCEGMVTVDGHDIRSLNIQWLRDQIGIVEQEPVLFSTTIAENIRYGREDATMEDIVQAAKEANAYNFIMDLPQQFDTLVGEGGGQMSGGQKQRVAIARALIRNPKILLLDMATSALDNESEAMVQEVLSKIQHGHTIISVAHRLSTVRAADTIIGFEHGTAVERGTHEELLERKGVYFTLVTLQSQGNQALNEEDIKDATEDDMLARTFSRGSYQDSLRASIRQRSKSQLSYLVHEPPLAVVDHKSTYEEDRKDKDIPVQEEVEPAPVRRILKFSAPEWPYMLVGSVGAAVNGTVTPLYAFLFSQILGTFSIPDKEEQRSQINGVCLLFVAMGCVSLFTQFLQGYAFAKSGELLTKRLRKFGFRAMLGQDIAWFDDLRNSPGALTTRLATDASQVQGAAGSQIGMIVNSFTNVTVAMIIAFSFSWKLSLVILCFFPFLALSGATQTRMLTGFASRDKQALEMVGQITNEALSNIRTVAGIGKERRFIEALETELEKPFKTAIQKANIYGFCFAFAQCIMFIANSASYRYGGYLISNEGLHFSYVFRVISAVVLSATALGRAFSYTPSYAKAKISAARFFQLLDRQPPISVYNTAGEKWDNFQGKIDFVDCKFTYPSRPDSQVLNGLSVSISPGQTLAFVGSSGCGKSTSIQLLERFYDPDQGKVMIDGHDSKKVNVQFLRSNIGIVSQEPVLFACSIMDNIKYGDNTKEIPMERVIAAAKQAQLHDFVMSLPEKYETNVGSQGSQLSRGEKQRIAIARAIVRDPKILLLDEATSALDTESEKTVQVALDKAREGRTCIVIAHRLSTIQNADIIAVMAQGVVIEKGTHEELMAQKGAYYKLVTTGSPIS

Regarding `COc1cc(F)c(O[C@H]2CC[C@@](C)(C(=O)O)CC2)cc1C(=O)N[C@@H]1[C@H]2CC[C@H](C2)[C@@H]1C(=O)Nc1ccc(F)c(S(F)(F)(F)(F)F)c1`, in data set [1], the clearance is 38 mL/min/kg. Further, in data set [2], a half-maximal effect (EC50) was put at 16 µM. The results for the half-inhibitory concentration (IC50) in data set [3] and in data set [7] were 23 µM and above 39 µM, respectively. Also, in data set [4], the result was Active. Also, in data set [5], the Activity entry is listed as “Non-Toxic”. The compound also showed a half-life in data set [6] of 2.9 h.

One may read the clearance as the volume of plasma or blood freed of the substance per unit of time. High values mean efficient removal, low ones inefficient removal. As usually defined, the EC50 is the concentration needed to bring the measured effect to its halfway point. The low end stands for greater potency, the high end for weaker potency. As a reminder, the IC50 is the point on the concentration scale where inhibition reaches its midpoint. What is called half-life is the time in which the quantity being followed falls by half. A lower half-life goes with fast loss.
